This note sets out measurements from patent US20260207704A1, “STAPLED PEPTIDES AND METHODS THEREOF” (priority 2022, published 2026).

For one assay, the system named is DLD1 reporter. The assay can be described thus: reporter assay (DLD1 reporter assay). Format: cell-based. The following applies: read-out: DLD1 4% Abs IC50. For orientation: Reporter assays use an easily measured gene product as a stand-in for the process of interest.
The subject of the next assay is COLO320DM cells. The assay can be described thus: COLO320DM proliferation assay. As to conditions: read-out: COLO320DM Proliferation Abs IC50. It counts as cell-based, human. As to the method:
Various technologies can be utilized to assess technologies of the present disclosure. For example, in some embodiments, solubility, LogD, interactions with targets, etc. of various agents such as stapled peptides were assessed using technologies described in WO 2022/261257 (e.g., those in its Examples). In some embodiments, solubility, shake flask LogD, and binding to beta-catenin were assessed. In some embodiments, an assay for assessing interactions, e.g., with beta-catenin, was fluorescence polarization as described in WO 2022/261257. In some embodiments, an assay was Nano-BRET target engagement assay that assessed beta-catenin/TCF4 engagement as described in WO 2022/261257. In some embodiments, an assay was a reporter assay as reported in Example 4 of WO 2022/261257. In some embodiments, an assay was a COLO320DM proliferation assay as reported in Example 4 of WO 2022/261257.
Among other things, provided technologies can inhibit proliferation of various cells including various cancer cells. In some embodiments, provided technologies modulate WNT specific transcription. In some embodiments, provided technologies induce cell cycle arrest. In some embodiments, provided technologies induce G1 cell cycle arrest. In some embodiments, provided technologies increased proportion of cells in G1 phase of cell cycle. As confirmed in FIG. 3, provided technologies can inhibit proliferation of COLO320DM, which is a colorectal cell line comprising various mutations such as APC, TP53, etc., modulate WNT specific transcription such as of AXIN2 and CXCL12, and induce G1 cell cycle arrest. In some embodiments, it was confirmed that provided technologies can reduce proportion of cells in S phase of cell cycle.

Like-named read-outs stand apart in the source and are kept apart here.

On to `CC(=O)N1CCC[C@]12CC=CCCCC1(CCCC=CCCCOC(=O)N3CC[C@@]4(C3)NC(=O)[C@H](CCCCNC(=O)CC[C@@H](C(=O)N3CCC[C@H]3CO)NC(=O)[C@H](Cc3csc5ccccc35)NC(=O)[C@H](Cc3ccsc3)NC4=O)NC(=O)[C@H](Cc3ccccc3)NC(=O)[C@H](C)NC(=O)[C@H](C)NC(=O)[C@H](Cc3cccc(C(=O)O)c3)NC(=O)[C@H](CC(=O)O)NC1=O)NC(=O)[C@H](CC(C)(C)C)NC(=O)[C@H](CC(=O)O)NC2=O` (relative stereo) [I-64, Ac-PL3-Asp-Npg-B5-Asp-3COOHF-Ala-Ala-Phe-Lys*3-PyrS2-3Thi-BztA-GlnR*3-Prool], for which the IC50 was 1 to 5 µM with DLD1 reporter (DLD1 4%) and 10 to 20 µM with COLO320DM cells.

As to `CC(=O)N1CCC[C@]12CC=CCCCC1(CCCC=CCCCOC(=O)N3CC[C@@]4(C3)NC(=O)[C@H](CCCCn3cc(nn3)COC[C@@H](C(=O)N[C@@H](C)C(N)=O)NC(=O)[C@H](Cc3csc5ccccc35)NC(=O)[C@H](Cc3ccsc3)NC4=O)NC(=O)[C@H](Cc3ccccc3)NC(=O)[C@H](C)NC(=O)C(C)(C)NC(=O)[C@H](Cc3cccc(C(=O)O)c3)NC(=O)[C@H](CC(=O)O)NC1=O)NC(=O)[C@H](CC(C)(C)C)NC(=O)[C@H](CC(=O)O)NC2=O` (relative stereo) [I-262, Ac-PL3-Asp-Npg-B5-Asp-3COOHF-Aib-Ala-Phe-TriAzLys*3-PyrS2-3Thi-BztA-sCH2S*3-Ala-NH2], the figures for the IC50 in the assay with DLD1 reporter (DLD1 4%) and in the assay on COLO320DM cells were at most 1 µM and at most 10 µM, respectively.

Regarding `CC(=O)N1CCC[C@]12CC=CCCCC1(CCCC=CCCCOC(=O)N3CC[C@@]4(C3)NC(=O)[C@H](CCCCNC(=O)CC[C@@H](C(=O)N[C@@H](C)C(N)=O)NC(=O)[C@H](Cc3csc5ccccc35)NC(=O)[C@H](Cc3ccncc3)NC4=O)NC(=O)[C@H](Cc3ccccc3)NC(=O)[C@H](C)NC(=O)C(C)(C)NC(=O)[C@H](Cc3cccc(C(=O)O)c3)NC(=O)[C@H](CC(=O)O)NC1=O)NC(=O)[C@H](CC(C)(C)C)NC(=O)[C@H](CC(=O)O)NC2=O` (relative stereo) [I-301, Ac-PL3-Asp-Npg-B5-Asp-3COOHF-Aib-Ala-Phe-Lys*3-PyrS2-4PyrA-BztA-GlnR*3-Ala-NH2], in the assay with COLO320DM cells, the IC50 was over 20 µM.

Regarding `CC(=O)N1CCC[C@]12CC=CCCCC1(CCCC=CCCCOC(=O)N3CC[C@@]4(C3)NC(=O)[C@H](CCCCNC(=O)CC[C@@H](C(=O)N[C@@H](C)C(N)=O)NC(=O)[C@H](Cc3csc5ccccc35)NC(=O)[C@H](Cc3cccnc3)NC4=O)NC(=O)[C@H](Cc3ccccc3)NC(=O)[C@H](C)NC(=O)C(C)(C)NC(=O)[C@H](Cc3cccc(C(=O)O)c3)NC(=O)[C@H](CC(=O)O)NC1=O)NC(=O)[C@H](CC(C)(C)C)NC(=O)[C@H](CC(=O)O)NC2=O` (relative stereo) [I-300, Ac-PL3-Asp-Npg-B5-Asp-3COOHF-Aib-Ala-Phe-Lys*3-PyrS2-3PyrA-BztA-GlnR*3-Ala-NH2], the IC50 in the assay on COLO320DM cells is over 20 µM.

With `CC(=O)N1CCC[C@]12CC=CCCCC1(CCCC=CCCCOC(=O)N3CC[C@@]4(C3)NC(=O)[C@H](CCCCNC(=O)CC[C@@H](C(=O)N[C@@H](C)C(N)=O)NC(=O)[C@H](Cc3csc5ccccc35)NC(=O)[C@H](Cc3ccccc3C(F)(F)F)NC4=O)NC(=O)[C@H](Cc3ccccc3)NC(=O)[C@H](C)NC(=O)C(C)(C)NC(=O)[C@H](Cc3cccc(C(=O)O)c3)NC(=O)[C@H](CC(=O)O)NC1=O)NC(=O)[C@H](CC(C)(C)C)NC(=O)[C@H](CC(=O)O)NC2=O` (single isomer, unassigned) [I-69, Ac-PL3-Asp-Npg-B5-Asp-3COOHF-Aib-Ala-Phe-Lys*3-PyrS2-2F3MeF-BztA-GlnR*3-Ala-NH2], the IC50 in the assay on DLD1 reporter (DLD1 4%) was at most 1 µM; with COLO320DM cells, at most 10 µM.

`CC(=O)N1CCC[C@]12CC=CCCCC1(CCCC=CCCCOC(=O)N3CC[C@@]4(C3)NC(=O)[C@H](CCCCNC(=O)CC[C@@H](C(=O)N[C@@H](C)C(N)=O)NC(=O)[C@H](Cc3csc5ccccc35)NC(=O)[C@H](Cc3ccsc3)NC4=O)NC(=O)[C@H](Cc3ccccc3)NC(=O)[C@H](C)NC(=O)C(C)(C)NC(=O)[C@H](Cc3cccc(C(=O)O)c3)NC(=O)[C@H](CC(=O)O)NC1=O)NC(=O)[C@H](C)NC(=O)[C@H](CC(=O)O)NC2=O` (relative stereo) [I-304, Ac-PL3-Asp-Ala-B5-Asp-3COOHF-Aib-Ala-Phe-Lys*3-PyrS2-3Thi-BztA-GlnR*3-Ala-NH2]: the IC50 in the assay on COLO320DM cells was at most 10 µM.

As for `CC(=O)N1CCC[C@]12CC=CCCCC1(CCCC=CCCCOC(=O)N3CC[C@@]4(C3)NC(=O)[C@H](CCCCn3cc(nn3)C[C@@H](C(=O)N[C@@H](C)C(N)=O)NC(=O)[C@H](Cc3csc5ccccc35)NC(=O)[C@H](Cc3ccsc3)NC4=O)NC(=O)[C@H](Cc3ccccc3)NC(=O)[C@H](C)NC(=O)C(C)(C)NC(=O)[C@H](Cc3cccc(C(=O)O)c3)NC(=O)[C@H](CC(=O)O)NC1=O)NC(=O)[C@H](CC(C)(C)C)NC(=O)[C@H](CC(=O)O)NC2=O` (single isomer, unassigned) [I-335, Ac-PL3-Asp-Npg-B5-Asp-3COOHF-Aib-Ala-Phe-TriAzLys*3-PyrS2-3Thi-BztA-sAla*3-Ala-NH2], the IC50 was at most 1 µM in the assay on DLD1 reporter (DLD1 reporter, 4%) and at most 10 µM with COLO320DM cells.

Regarding `CC(=O)N1CCC[C@]12CC=CCCCC1(CCCC=CCCCOC(=O)N3CC[C@@]4(C3)NC(=O)[C@H](CCCCNC(=O)CC[C@@H](C(=O)N[C@@H](C)C(N)=O)NC(=O)[C@H](Cc3csc5ccccc35)NC(=O)[C@H](Cc3ccsc3)NC4=O)NC(=O)[C@H](Cc3ccccc3)NC(=O)[C@H](C)NC(=O)[C@H](Cc3ccccc3)NC(=O)[C@H](Cc3cccc(C(=O)O)c3)NC(=O)[C@H](CC(=O)O)NC1=O)NC(=O)[C@H](CC(C)(C)C)NC(=O)[C@H](CC(=O)O)NC2=O` (relative stereo) [I-386, Ac-PL3-Asp-Npg-B5-Asp-3COOHF-Phe-Ala-Phe-Lys*3-PyrS2-3Thi-BztA-GlnR*3-Ala-NH2], the IC50 with COLO320DM cells was over 20 µM.

Regarding `CCCC[C@@H]1NC(=O)[C@H](Cc2cccc(C(=O)O)c2)NC(=O)[C@H](CC(=O)O)NC(=O)C2(CCCC=CCCCOC(=O)N3CC[C@@]4(C3)NC(=O)[C@H](CCCCNC(=O)CC[C@@H](C(=O)N[C@@H](C)C(N)=O)NC(=O)[C@H](Cc3csc5ccccc35)NC(=O)[C@H](Cc3ccsc3)NC4=O)NC(=O)[C@H](Cc3ccccc3)NC(=O)[C@H](C)NC1=O)CCCC=CC[C@]1(CCCN1C(C)=O)C(=O)N[C@@H](CC(=O)O)C(=O)N[C@@H](CC(C)(C)C)C(=O)N2` (relative stereo) [I-70, Ac-PL3-Asp-Npg-B5-Asp-3COOHF-nLeu-Ala-Phe-Lys*3-PyrS2-3Thi-BztA-GlnR*3-Ala-NH2], the IC50 is at most 1 µM in the assay on DLD1 reporter (DLD1 4%) and at most 10 µM with COLO320DM cells.

Regarding `CC(=O)N1CCC[C@@]1(C)C(=O)N[C@@H](CC(=O)O)C(=O)N[C@H](C(=O)N[C@]1(C)CCCCCCCCOC(=O)N2CC[C@@]3(C2)NC(=O)[C@H](CCCCNC(=O)CC[C@@H](C(=O)N[C@@H](C)C(N)=O)NC(=O)[C@H](Cc2csc4ccccc24)NC(=O)[C@H](Cc2ccsc2)NC3=O)NC(=O)[C@H](Cc2ccccc2)NC(=O)[C@H](C)NC(=O)C(C)(C)NC(=O)[C@H](Cc2cccc(C(=O)O)c2)NC(=O)[C@H](CC(=O)O)NC1=O)C(C)C` (relative stereo) [I-237, Ac-MePro-Asp-Val-R5-Asp-3COOHF-Aib-Ala-Phe-Lys*3-PyrS2-3Thi-BztA-GlnR*3-Ala-NH2], the IC50 in the assay on COLO320DM cells is over 20 µM.

With `CC(=O)N1CCC[C@]12CC=CCCCC1(CCCC=CCCCOC(=O)N3CC[C@@]4(C3)NC(=O)[C@H](CCCCNC(=O)CC[C@@H](C(=O)N[C@@H](C)C(N)=O)NC(=O)[C@H](Cc3csc5ccccc35)NC(=O)[C@H](Cc3ccsc3)NC4=O)NC(=O)[C@H](Cc3ccccc3)NC(=O)[C@H](C)NC(=O)C(C)(C)NC(=O)[C@H](Cc3cccc(C(=O)O)c3)NC(=O)[C@H](CC(=O)O)NC1=O)NC(=O)[C@H](C1CCCCC1)NC(=O)[C@H](CC(=O)O)NC2=O` (single isomer, unassigned) [I-253, Ac-PL3-Asp-Chg-B5-Asp-3COOHF-Aib-Ala-Phe-Lys*3-PyrS2-3Thi-BztA-GlnR*3-Ala-NH2], in the assay on COLO320DM cells, the IC50 was at most 10 µM.

As to `CC(=O)N1CCC[C@]12CC=CCCCC1(CCCC=CCCCOC(=O)N3CC[C@@]4(C3)NC(=O)[C@H](CCCCNC(=O)CC[C@@H](C(=O)N[C@@H](C)C(N)=O)NC(=O)[C@H](Cc3csc5ccccc35)NC(=O)[C@H](Cc3ccccc3C)NC4=O)NC(=O)[C@H](Cc3ccccc3)NC(=O)[C@H](C)NC(=O)C(C)(C)NC(=O)[C@H](Cc3cccc(C(=O)O)c3)NC(=O)[C@H](CC(=O)O)NC1=O)NC(=O)[C@H](CC(C)(C)C)NC(=O)[C@H](CC(=O)O)NC2=O` (relative stereo) [I-294, Ac-PL3-Asp-Npg-B5-Asp-3COOHF-Aib-Ala-Phe-Lys*3-PyrS2-2MeF-BztA-GlnR*3-Ala-NH2], in the assay on COLO320DM cells, the IC50 was at most 10 µM.
